Test results reported in the NIST ThermoML archive (doi:10.1016/j.jct.2019.02.011).

How the values were obtained:
[1] = Liquid, Vibrating tube method
[2] = xn = mol fraction of the nth substance listed; details: Liquid, Vibrating tube method, x2 = 0

COC(=O)OC [dimethyl carbonate]
mass density [kg/m3], [1]
Details	100 kPa	5000 kPa	10000 kPa	15000 kPa	20000 kPa	25000 kPa	30000 kPa	35000 kPa	40000 kPa
288.15 K	1076.83	1081.15	1085.32	1089.52	1093.35	1096.99	1100.63	1104.08	1107.4
293.15 K	1070.06	1074.62	1078.93	1083.01	1087.08	1091.03	1094.75	1098.34	1101.84
298.15 K	1063.45	1068	1072.51	1076.72	1080.9	1084.89	1088.82	1092.44	1096.04
303.15 K	1056.61	1061.47	1066.02	1070.49	1074.79	1078.99	1082.9	1086.6	1090.4
308.15 K	1049.91	1054.84	1059.69	1064.3	1068.73	1073	1077.1	1080.78	1084.38

CCO [ethanol]
mass density [kg/m3], [1]
Details	100 kPa	5000 kPa	10000 kPa	15000 kPa	20000 kPa	25000 kPa	30000 kPa	35000 kPa	40000 kPa
288.15 K	794.39	798.18	802.2	806.02	809.69	812.95	816.23	819.12	822.29
293.15 K	789.87	793.83	797.88	801.84	805.45	809.12	812.52	815.8	818.81
298.15 K	785.59	789.72	793.76	797.75	801.4	805.07	808.47	811.58	815.03
303.15 K	781.19	785.47	789.66	793.71	797.54	801.26	804.81	808.29	811.43
308.15 K	776.6	780.98	785.42	789.62	793.63	797.42	801.06	804.6	808.06

CCO [ethanol] + COC(=O)OC
mass density [kg/m3], [2]
Details	100 kPa	5000 kPa	10000 kPa	15000 kPa	20000 kPa	25000 kPa	30000 kPa	35000 kPa	40000 kPa
288.15 K	794.39	798.18	802.2	806.02	809.69	812.95	816.23	819.12	822.29
293.15 K	789.87	793.83	797.88	801.84	805.45	809.12	812.52	815.8	818.81
298.15 K	785.59	789.72	793.76	797.75	801.4	805.07	808.47	811.58	815.03
303.15 K	781.19	785.47	789.66	793.71	797.54	801.26	804.81	808.29	811.43
308.15 K	776.6	780.98	785.42	789.62	793.63	797.42	801.06	804.6	808.06
